The values below come from US11110092B2, “Methods of treating hematologic cancers” (BIOCRYST PHARMACEUTICALS, INC, priority 2007, dated 2021).

Read-outs that look alike come from different tables or passages of the source. Peptide text beside a SMILES is read from it. * marks the point of attachment. Cbz = O=C(OCc1ccccc1)*; CH2F = FC*

Data set [1] concerns mitochondrial transmembrane potential in CLL cells. Briefly: Loss of mitochondrial transmembrane potential (DiOC6 staining, flow cytometry). Particulars: for effect of pre-incubation on Δψm loss induced by forodesine: ROS scavenger pre-incubation. The data set is classed as cell-based, human.
Description: (§1) Cells were incubated for different time points with forodesine at doses ranging from 1 to 12 μM in the presence or absence of 10-20-30 μM of deoxyguanosine (dGuo). When indicated, cells were pre-incubated for 1 hour with the pan-caspase inhibitor z-VAD.fmk (benzyloxy-carbonyl-Val-Ala-Asp-fluoro-methylketone; Bachem, Bubendorf, Switzerland) at 80 the caspase-8 inhibitor z-IETD.fmk at 50 μM (Z-Ile-Glu(OMe)Thr-DL-Asp (OMe)-fluoromethylketone, Bachem), 2′-deoxycytidine (5-10-20 μM, Sigma), N-acetyl-L-cysteine (NAC, 25 mM), Tiron (5 mM, 4,5-Dihydroxy-1,3-Benzene-disulfonic acid, Sigma) or GSH (2 mM; Sigma). […] Loss of mitochondrial transmembrane potential (ΔΨm) were evaluated by staining cells with 20 nM of DiOC6 (3,3-diexyloxacarbocyanine iodide, Molecular Probes) and reactive oxygen species (ROS) production was determined by staining cells with 2 μM dihydroethidine (DHE; Molecular Probes) and flow cytometry analysis.
Another data set concerns ROS in CLL primary cells. Briefly: Reactive oxygen species production (dihydroethidine staining, flow cytometry). The data set is classed as cell-based, human. Particulars: for effect of pre-incubation on ROS production induced by forodesine: ROS scavenger pre-incubation. (A flow cytometer gives signals particle by particle.)
Data set [2] concerns primary leukemic cells from patients with CLL. More on the design: cell death: dose or concentration left out as unconfirmed.
Description: The present in vitro study was carried out in primary leukemic lymphocytes from 43 patients diagnosed with CLL according to the World Health Organization classification. Informed consent was obtained from each patient.
Peripheral blood mononuclear cells (PBMCs) cells were isolated by Ficoll/Hypaque sedimentation (Seromed, Berlin, Germany). Cells were either used directly or cryopreserved in liquid nitrogen in the presence of 10% dimethyl sulfoxide and 90% heat-inactivated fetal bovine serum (FBS, Gibco Paisley, Scotland, UK).
Cells were incubated for different time points with forodesine at doses ranging from 1 to 12 μM in the presence or absence of 10-20-30 μM of deoxyguanosine (dGuo). When indicated, cells were pre-incubated for 1 hour with the pan-caspase inhibitor z-VAD.fmk (benzyloxy-carbonyl-Val-Ala-Asp-fluoro-methylketone; Bachem, Bubendorf, Switzerland) at 80 the caspase-8 inhibitor z-IETD.fmk at 50 μM (Z-Ile-Glu(OMe)Thr-DL-Asp (OMe)-fluoromethylketone, Bachem), 2′-deoxycytidine (5-10-20 μM, Sigma), N-acetyl-L-cysteine (NAC, 25 mM), Tiron (5 mM, 4,5-Dihydroxy-1,3-Benzene-disulfonic acid, Sigma) or GSH (2 mM; Sigma). […] Cell viability and apoptosis induction was analyzed by changes in cell complexity by means of FSC/SSC, quantification of phosphatidyl serine (PS) exposure by double staining with Annexin-V conjugated to fluorescein isothiocyanate (FITC) and propidium iodide (PI) (BenderMedsystems, Vienna, Austria). For the analysis of apoptosis in the CD3^+ and CD19^− populations, PBMCs were labeled simultaneously with anti-CD3-FITC (Immunotech, Marseille, France), anti-CD19-PE (Becton Dickinson) and Annexin-V-APC. Cell viability and cytotoxicity were plotted as percentage with respect to control cells. Loss of mitochondrial transmembrane potential (ΔΨm) were evaluated by staining cells with 20 nM of DiOC6 (3,3-diexyloxacarbocyanine iodide, Molecular Probes) and reactive oxygen species (ROS) production was determined by staining cells with 2 μM dihydroethidine (DHE; Molecular Probes) and flow cytometry analysis. […] In brief, cells were washed once in PBS and fixed in paraformaldehyde 4%, permeabilized with 0.1% saponin and 0.5% bovine serum albumin (BSA). […] After several washes in permeabilization buffer, cells were incubated with a secondary goat anti-mouse FITC (DAKO) or goat anti-rabbit FITC (Supertechs) antibody and washed again with permeabilization buffer. Ten thousand stained cells per sample were then analyzed by flow cytometry.
Data set [3] deals with intracellular dGTP in CLL primary cells. Briefly: Measurement of intracellular dGTP levels (DNA polymerase assay). The data set is classed as cell-based, human. Particulars: forodesine 2 μM and dGuo 10 μM; 26 CLL patients; 18 hours. How it is done: 15×10^6 of CLL primary cells were incubated with or without forodesine (2 μM) and dGuo (10 μM) or fludarabine (1 μg/ml) for 18 hours and the nucleotides were extracted with 60% methanol and intracellular dGTP levels were quantified by DNA polymerase assay as modified by Sherman and Fyfe (Sherman et al., Anal Biochem, 180(2), 222-226 (1989)). Data were expressed in fold induction of intracellular dGTP levels respect of control cells. In parallel, cell viability at 24 and 48 hours were also evaluated.

Data set [4] deals with dCK phosphorylated at Ser-74 in CLL cells. The data set is described as follows: Western blot of dCK phosphorylation at Ser-74. It counts as cell-based, human. Background: A western blot detects proteins with antibodies after separation by electrophoresis.
The subject of data set [5] is caspase-9, -8 and -3 in CLL cells. The data set is described as follows: Caspase activation by immunoblotting. Particulars: as early as 10 hours of forodesine treatment. The data set is classed as cell-based, human.
The test system of a further data set is BID in CLL cells. Briefly: BID processing by immunoblotting. The data set is classed as cell-based, human. Particulars: forodesine treatment.
For data set [6], the system named is XIAP and survivin in CLL cells. Briefly: XIAP and survivin levels by immunoblotting. The data set is classed as cell-based, human. Particulars: forodesine treatment.
Another data set has as its system MCL-1 in CLL cells. Briefly: MCL-1 protein levels by immunoblotting. Particulars: forodesine treatment. The data set is classed as cell-based, human.
In a further data set the test system is BCL-2 in CLL cells. Briefly: BCL-2 protein levels by immunoblotting. It counts as cell-based, human. Particulars: forodesine treatment.
A further data set has as its system BIM in CLL cells. The data set is described as follows: BIM protein levels by immunoblotting. It counts as cell-based, human. Particulars: forodesine treatment.
For another data set, the system named is BAX and BAK in CLL cells. Briefly: BAX and BAK activation by flow cytometry (conformational change). The data set is classed as cell-based, human. As to conditions: incubation of CLL cells with forodesine.
The subject of the next data set is p53 in CLL cells. Briefly: p53 protein stabilization by immunoblotting. Particulars: CLL cases with no 17p deletion. It counts as cell-based, human.
A further data set relates to p73 in CLL cells. Briefly: p73 mRNA (real time RT-PCR) and TAp73 protein levels. It counts as cell-based, human. As to conditions: all CLL cases analyzed. As to the method: Cells were lysed for 15 min in RIPA buffer supplemented with protease and phosphatase inhibitors (leupeptine 10 μg/ml, apoprotinine 10 μg/ml, 1 μM PMSF, 1 μM sodium ortovanadate, 1 μM NaF, 2 μM sodium pyrophosphate decahydrate (Sigma)). Total cellular proteins were separated by SDS-PAGE under reducing conditions and transferred to Immobilon-P (Millipore) membranes. […] Equal protein loading was confirmed with β-actin or α-tubulin expression and relative protein quantification was done with Image Gauge Fujifilm software (Fuji). […] The expression levels of p73 and Mcl-1 were determined in an ABI Prism 7900HT Sequence Detection System (Applied Biosystems, Foster City, Calif.) using pre-designed Assay-on-demand (Applied Biosystems). The relative expression of each gene was quantified by the comparative cycle threshold (Ct) method (ΔΔCt), using GUS as an endogenous control. mRNA expression levels were given as arbitrary quantitative PCR units, taking as a calibrator the control sample (untreated) of each case.

Data set [7] has as its system FOXO1 and FOXO3a in CLL cells. The data set is described as follows: FOXO1 and FOXO3a levels by immunoblotting. It counts as cell-based, human. As to conditions: CLL cells treated with forodesine.
The conditions of data set [8]: Gandhi et al. 2005; Korycka et al. 2007; cited from earlier work.
Setting [9] is: caspase-8 inhibitor pre-incubation.

Description for ROS in CLL primary cells: as §1

Regarding `CCOC(=O)CNC(=O)[C@H](CS)NC(=O)CC[C@H](N)C(=O)O` [GSH, glutathione-reduced ethyl ester], the “effect of pre-incubation on Δψm loss induced by forodesine” value in data set [1] is given as “reduced Δψm loss”. In addition, the “effect of pre-incubation on ROS production induced by forodesine” value in the data set on ROS in CLL primary cells is recorded as “moderated”.
For `COC(=O)C[C@H](NC(=O)[C@H](C)NC(=O)[C@@H](NC(=O)OCc1ccccc1)C(C)C)C(=O)CF` [z-VAD.fmk, benzyloxy-carbonyl-Val-Ala-Asp-fluoro-methylketone] (Cbz-Val-Ala-Asp(OMe)-CH2F), in data set [2] (broad range caspase inhibitor pre-incubation, forodesine 24 hours), the “effect on phosphatidylserine exposure after forodesine treatment” value is listed as “partially reduced phospatidylserine exposure”.
Turning to `Nc1nc(F)nc2c1ncn2[C@@H]1O[C@H](CO)[C@@H](O)[C@@H]1O` [Fludarabine], in [2], the mean cytotoxicity was 25.1±13% and the “mean cytotoxicity as single agents” value came out at 50.6±11%.
Turning to `CC(=O)N[C@@H](CS)C(=O)O` [NAC, N-acetyl-L-cysteine], the “effect of pre-incubation on Δψm loss induced by forodesine” value in data set [1] was “reduced Δψm loss”. Also, the “effect of pre-incubation on ROS production induced by forodesine” value in the data set on ROS in CLL primary cells is “practically reverted ROS production”.
As to `Nc1ccn([C@H]2C[C@H](O)[C@@H](CO)O2)c(=O)n1` [deoxycytidine, 2′-deoxycytidine], the “effect of pre-incubation on forodesine-induced cell death” value in data set [2] (deoxycytidine 5-10 μM) was “inhibited forodesine-induced cell death”. Also, in [2] (deoxycytidine pre-incubation), the “effect on cell death induced by bendamustine” value is given as “not reverted” and the “effect on loss of cell viability induced by fludarabine” value is given as “reverted the loss of cell viability”.
With Rituximab, the cell death entry in data set [2] (single agent or combined with forodesine, 24 hours) is “low”.
For the compound `Cl.O=c1[nH]cnc2c([C@@H]3N[C@H](CO)[C@@H](O)[C@H]3O)c[nH]c12` [Forodesine], the “increase in intracellular dGTP levels with respect to control basal levels” value in data set [3] is “up to 96 times fold increase”. Besides, the “phosphorylated form (at Ser-74) of dCK” value in data set [4] (western blot in CLL cells) was “increase in the phosphorylated form”. For the same compound, the “mitochondrial transmembrane potential (Δψm)” value in data set [1] (early times, evident after 10 hours) is recorded as “induced loss of mitochondrial transmembrane potential”. In addition, the ROS production result with ROS in CLL primary cells (CLL primary cells, evident after 10 hours) is “induced the production of ROS”. In data set [5], the “activation of caspase-9, -8 and -3 (processing of pro-inactive form)” value is “dose- and time-dependent activation”. The BID protein entry in the data set on BID in CLL cells is listed as “induced a decreased of BH3-only protein BID”. Moreover, in [6], the “XIAP and survivin levels” value was “decrease of the inhibitors of apoptosis XIAP and survivin”. In addition, the MCL-1 protein levels result in the data set with MCL-1 in CLL cells is “considerably decreased”. Besides, the BCL-2 protein levels result in the data set with BCL-2 in CLL cells is on record as “not affected”. The BIM protein levels result with BIM in CLL cells is on record as “induced an increase”. For the same compound, the “activation of BAX and BAK” value with BAX and BAK in CLL cells is “induced the conformational change of BAX and BAK”. In addition, the p53 protein entry in the data set with p53 in CLL cells is given as “induce stabilization of p53 protein”. Also, in the data set with p73 in CLL cells, the “p73 mRNA and TAp73 protein levels” value is recorded as “clear up-regulation”. Moreover, the “FOXO1 and FOXO3a levels” value in data set [7] was “induced an increase in both, FOXO1 and FOXO3a”. In [2], the “cytotoxic effect of agent alone” value was “did not induce a cytotoxic effect” and the “share of cases with cytotoxic effect between 40-60%” value was 41.8%. Also, the “response of p53 deleted CLL cases” value in data set [2] (11 CLL patients with 17p deletions, Forodesine 2 μM+dGuo 20 μM, 48 hours) was “high response”. In addition, in data set [2] (12 of 32 CLL patient samples), the “response in samples with no or low in vitro response to bendamustine 25 μM and/or fludarabine 1 μg/ml” value is “high response”. Also, the mean cytoxicity in data set [2] (CLL cells with high levels of ZAP-70, 22 CLL patients) is listed as 57.9%±12. Also, the “mean cytoxicity with respect to control” value in [2] (CLL cells with low levels of ZAP-70, 17 CLL patients) is listed as 58.1%±11. Besides, the “response of CLL cells with low or no sensitivity to Bendamustine or Fludarabine” value in [2] (Forodesine 2 μM and dGuo 10-20 μM) is reported as “good response”. Moreover, the “cell death (Annexin-V+ staining)” value in [2] (forodesine 2-5-10 μM with dGuo 10-20 or 30 μM, 48 hours) is on record as “induced cell death”. In addition, the “response in CLL cells with 13q deletion, 11q deletion and 17p deletion” value in data set [2] (forodesine-induced cytotoxicity) is given as “good response”. The “cell death, CLL fresh samples” value in data set [2] (n=10, 48 hours) is given as 56.6%±6.4. Also, the “cell death, cryopreserved primary CLL samples” value in data set [2] (n=32, 48 hours) is 58.3%±11. Besides, the toxicity profile entry in [8] was “low toxicity profile”.
Regarding `Cl.Cn1c(CCCC(=O)O)nc2cc(N(CCCl)CCCl)ccc21` [Bendamustine], in data set [4], the “phosphorylated form (at Ser-74) of dCK” value is “not exerted”.
For the compound `O=S(=O)(O)c1cc(O)c(O)c(S(=O)(=O)O)c1` [Tiron, 4,5-Dihydroxy-1,3-Benzene-disulfonic acid], in data set [1], the “effect of pre-incubation on Δψm loss induced by forodesine” value is reported as “reduced Δψm loss”. For the same compound, in the data set with ROS in CLL primary cells, the “effect of pre-incubation on ROS production induced by forodesine” value is given as “practically reverted ROS production”.
As to `CC[C@H](C)[C@H](NC(=O)OCc1ccccc1)C(=O)N[C@@H](CCC(=O)OC)C(=O)N[C@H](C(=O)N[C@@H](CC(=O)OC)C(=O)CF)[C@@H](C)O` (racemic) [z-IETD.fmk, Z-Ile-Glu(OMe)Thr-DL-Asp (OMe)-fluoromethylketone], in [1] (setting [9]), the “reversion of ΔΨm loss induced by forodesine” value is “more pronounced”. Besides, in data set [2] (setting [9]), the “effect on forodesine apoptosis induction (Annexin V staining)” value is “partially blocked”.
Regarding `Nc1nc2c(ncn2[C@H]2C[C@H](O)[C@@H](CO)O2)c(=O)[nH]1` [dGuo, deoxyguanosine], in data set [2], the “cytotoxic effect of agent alone” value is “did not induce a cytotoxic effect”.
